The assay has as its target T1, USP7 (Homo sapiens, UniProt Q93009, C315A).
T1 construct: 0.25 nM His-His-USP7 (aa208-560, [C315A]) was incubated with compound; His-His (N)
Put plainly: Inhibition of USP7 by Fluorescence Intensity (FLINT) readings, Ubiquitin-Rhodamine-110 substrate. In kind it is biochemical. The note with it: 0.25 nM His-His-USP7 (aa208-560, [C315A]); compound 60 minutes at 30° C.; 500 nM Ubiquitin-Rhodamine substrate; 11-point curves. Here is the method:
USP7 activity was measured using Rhodamine-110 c-terminal labelled Ubiquitin as a substrate (Viva Biosciences). Incubation with USP7 results in the release of Rhodamine-110 leading to an increase in fluorescence which can be used in the continuous measurement of USP7 activity.
The USP7 reactions were performed in a 50 μL volume, in 384 well black solid low binding plates (Corning #3575). The reaction buffer consisted of 100 mM Bicine pH 8.0, 0.01% TritonX 100, 1 mM TCEP, and 10% DMSO.
0.25 nM His-His-USP7 (aa208-560, [C315A]) was incubated with compound (final concentration 10% DMSO) for 60 minutes at 30° C. The reaction was then initiated by the addition of 500 nM Ubiquitin-Rhodamine-10 substrate and the plate read every 3 minutes for 21 minutes to measure the release of Rhodamine-110. Fluorescence Intensity (FLINT) readings were measured using a Biomek Neo plate reader (Ex. 485 nm. Em. 535 nm).
The inhibition of increasing doses of compound was expressed as a percentage reduction in kinetic rate compared to the kinetic rates established between ‘DMSO only’ and ‘total inhibition’ controls (no USP7). The inhibitory concentrations that gave a 50% reduction in kinetic rate (IC50) were determined, from 11-point dose response curves, in XL-Fit using a 4-Parameter Logistic Model (Sigmoidal Dose-Response Model).
T1 sequence (Q93009 208-560 C315A): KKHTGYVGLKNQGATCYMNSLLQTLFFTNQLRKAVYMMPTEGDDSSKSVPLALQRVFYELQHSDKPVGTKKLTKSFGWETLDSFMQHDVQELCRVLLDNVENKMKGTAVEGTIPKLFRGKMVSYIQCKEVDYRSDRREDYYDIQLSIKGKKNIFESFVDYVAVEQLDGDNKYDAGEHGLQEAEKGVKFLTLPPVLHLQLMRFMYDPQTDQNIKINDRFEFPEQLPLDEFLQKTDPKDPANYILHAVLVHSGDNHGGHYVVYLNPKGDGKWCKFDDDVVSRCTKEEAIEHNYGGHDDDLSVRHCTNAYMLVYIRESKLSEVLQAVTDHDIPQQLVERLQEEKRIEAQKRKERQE
The compound `O=C([C@@H]1CCCC(F)(F)[C@H]1c1ccccc1)N1CCC(O)(Cn2cnc3c(ccn3-c3ccccc3)c2=O)CC1` (relative stereo) [Example 51, 3-[[1-[trans-3,3-difluo-2-phenyl-cyclohexanecarbonyl]-4-hydroxy-4-piperidyl]methyl]-7-phenyl-pyrrolo[2,3-d]pyrimidin-4-one] registered an IC50 of 10100 nM.

Regarding `COc1ccc(-n2ccc3c(=O)n(CC4(O)CCN(C(=O)[C@@H]5CCC(F)(F)C[C@H]5c5ccoc5)CC4)cnc32)cc1` (relative stereo) [Example 74, 3-[[1-[trans-4,4-difluoro-2-(3-fury)cyclohexanecarbonyl]-4-hydroxy-4-piperidyl]methyl]-7-(4-methoxyphenyl)pyrrolo[2,3-d]pyrimidin-4-one], the midpoint of inhibition, the IC50, lay at 2900 nM.

In turn, `COc1ccc(-n2ccc3c(=O)n(CC4(O)CCN(C(=O)[C@@H]5CCCO[C@H]5c5ccccc5)CC4)cnc32)cc1` (single isomer, unassigned) [Example 44, 3-[[4-hydroxy-1-[trans-2-phenyltetrahydropyran-3-carbonyl]-4-piperidyl]methyl]-7-(4-methoxyphenyl)pyrrolo[2,3-d]pyrimidin-4-one] had an IC50 of 2750 nM.

As for `COc1ccc(-n2ccc3c(=O)n(CC4(O)CCN(C(=O)[C@@H]5OCCO[C@@H]5c5ccccc5)CC4)cnc32)cc1` (single isomer, unassigned) [Example 7, 3-[[4-hydroxy-1-[cis-3-phenyl-1,4-dioxane-2-carbonyl]-4-piperidyl]methyl]-7-(4 methoxyphenyl)pyrrolo[2,3-d]pyrimidin-4-one], the IC50 stood at 6500 nM.

With `O=C([C@@H]1CCC(F)(F)C[C@H]1c1ccccc1)N1CCC(O)(Cn2cnc3c(ccn3-c3ccccc3)c2=O)CC1` (single isomer, unassigned) [Example 35, 3-[[1-[trans-4,4-difluoro-2-phenyl-cyclohexanecarbonyl]-4-hydroxy-4-piperidyl]methyl]-7-phenyl-pyrrolo[2,3-d]pyrimidin-4-one], the IC50 turned out to be 13500 nM.

In turn, `O=C([C@@H]1CC(F)(F)CC[C@H]1c1ccccc1)N1CCC(O)(Cn2cnc3c(-c4ccccc4)scc3c2=O)CC1` (single isomer, unassigned) [Example 79, 3-[[1-[trans-5,5-difluoro-2-phenyl-cyclohexanecarbonyl]-4-hydroxy-4-piperidyl]methyl]-7-phenyl-thieno[3,4-d]pyrimidin-4-one] returned an IC50 of 60.1 nM.

Compound `Cn1ccnc1[C@@H]1CCCC[C@H]1C(=O)N1CCC(O)(Cn2cnc3c(ccn3-c3ccccc3)c2=O)CC1` (single isomer, unassigned) [Example 58, 3-[[4-hydroxy-1-[trans-2-(1-methylimidazol-2-yl)cyclohexanecarbonyl]-4-piperidyl]methyl]-7-phenyl-pyrrolo[2,3-d]pyrimidin-4-one] showed an IC50 of 20300 nM.

In the case of `COc1ccc(-n2ccc3c(=O)n(CC4(O)CCN(C(=O)[C@@H]5C(C)=CCC[C@H]5c5ccsc5)CC4)cnc32)cc1` (single isomer, unassigned) [Example 61, 3-[[4-hydroxy-1-[trans-2-methyl-6-(3-thienyl)cyclohex-2-ene-1-carbonyl]-4-piperidyl]methyl]-7-(4-methoxyphenyl)pyrrolo[2,3-d]pyrimidin-4-one], 72.3 nM corresponded to half-maximal inhibition (IC50).

In turn, `O=C([C@@H]1CCCC[C@H]1c1ccoc1)N1CCC(O)(Cn2cnc3cccnc3c2=O)CC1` (relative stereo) [Example 4, 3-[[1-[trans-2-(3-furyl)cyclohexanecarbonyl]-4-hydroxy-4-piperidyl]methyl]pyrido[3,2-d]pyrimidin-4-one] displayed a half-maximal inhibitory concentration (IC50) of 4580 nM.

On to `COc1ccc(-n2ccc3c(=O)n(CC4(O)CCN(C(=O)[C@@H]5CCCC[C@H]5n5ccnc5)CC4)cnc32)cc1` (single isomer, unassigned) [Example 48, 3-[[4-hydroxy-1-[trans-2-imidazol-1-ylcyclohexanecarbonyl]-4-piperidyl]methyl]-7-(4-methoxyphenyl)pyrrolo[2,3-d]pyrimidin-4-one], for which the half-maximal inhibitory concentration (IC50) was 413 nM.

`O=C([C@@H]1CCC(F)(F)C[C@H]1c1cnco1)N1CCC(O)(Cn2cnc3c(Cl)scc3c2=O)CC1` (relative stereo) [Example 76, 7-chloro-3-[[1-[trans-4,4-difluoro-2-oxazol-5-yl-cyclohexanecarbonyl]-4-hydroxy-4-piperidyl]methyl]thieno[3,4-d]pyrimidin-4-one] registered an IC50 of 6640 nM.

Regarding `COc1ccc(-n2ccc3c(=O)n(CC4(O)CCN(C(=O)C5CCCCC5c5nccn5C)CC4)cnc32)cc1` (single isomer, unassigned) [Example 69, 3-[[4-hydroxy-1-trans-2-(1-methylimidazol-2-yl)cyclohexanecarbonyl]-4-piperidyl]methyl-7-(4-methoxyphenyl)pyrrolo[2,3-d]pyrimidin-4-one], the IC50 came out at 10500 nM.

In turn, `O=C([C@@H]1CCCC[C@H]1c1ccsc1)N1CCC(O)(Cn2cnc3cccnc3c2=O)CC1` (relative stereo) [Example 1, 3-[[4-hydroxy-1-[trans-2-(3-thienyl)cyclohexanecarbonyl]-4-piperidyl]methyl]pyrido[3,2-d]pyrimidin-4-one] registered an IC50 of 916 nM.

On to `CC1(C)CC[C@@H](C(=O)N2CCC(O)(Cn3cnc4c(-c5ccccc5)scc4c3=O)CC2)[C@H](c2ccccc2)C1` (single isomer, unassigned) [Example 99, 3-[[1-(trans-4,4-dimethyl-2-phenyl-cyclohexanecarbonyl)-4-hydroxy-4-piperidyl]methyl]-7-phenyl-thieno[3,4-d]pyrimidin-4-one], for which the half-maximal inhibitory concentration (IC50) worked out at 268 nM.

`COc1ccc(-n2ccc3c(=O)n(CC4(O)CCN(C(=O)[C@@H]5CC(F)(F)CC[C@H]5c5ccccc5)CC4)cnc32)cc1` (single isomer, unassigned) [Example 29, 3-[[1-[trans-5,5-difluoro-2-phenyl-cyclohexanecarbonyl]-4-hydroxy-4-piperidyl]methyl]-7-(4-methoxyphenyl)pyrrolo[2,3-d]pyrimidin-4-one]: it took 612 nM to reach half-maximal inhibition (IC50).

In turn, `COc1ccc(-n2ccc3c(=O)n(CC4(O)CCN(C(=O)[C@@H]5CCCO[C@H]5c5ccccc5)CC4)cnc32)cc1` (single isomer, unassigned) [Example 45, 3-[[4-hydroxy-1-[trans-2-phenyltetrahydropyran-3-carbonyl]-4-piperidyl]methyl]-7-(4-methoxyphenyl)pyrrolo[2,3-d]pyrimidin-4-one] showed an IC50 of 86 nM.

Compound `NC(=O)CSCCC(=O)Nc1ccc2ncn(CC3(O)CCN(C(=O)[C@@H]4CCCC[C@H]4c4ccccc4)CC3)c(=O)c2n1` (relative stereo) [Example 108, 3-(2-amino-2-oxo-ethyl)sulfanyl-N-[3-[[4-hydroxy-1-(trans-2-phenylcyclohexanecarbonyl)-4-piperidyl]methyl]-4-oxo-pyrido[3,2-d]pyrimidin-6-yl]propanamide] returned an IC50 of 76.5 nM.

As to `COc1ccc(-n2ccc3c(=O)n(CC4(O)CCN(C(=O)[C@@H]5CCCC[C@H]5n5cccc5)CC4)cnc32)cc1` (single isomer, unassigned) [Example 16, 3-[[4-hydroxy-1-[trans-2-pyrrol-1-ylcyclohexanecarbonyl]-4-piperidyl]methyl]-7-(4-methoxyphenyl)pyrrolo[2,3-d]pyrimidin-4-one], half-maximal inhibition (IC50) required 2970 nM.

As for `O=C([C@@H]1CCC(F)(F)C[C@H]1c1ccsc1)N1CCC(O)(Cn2cnc3c(-c4ccccc4)scc3c2=O)CC1` (single isomer, unassigned) [Example 88, 3-[[1-[trans-4,4-difluoro-2-(3-thienyl)cyclohexanecarbonyl]-4-hydroxy-4-piperidyl]methyl]-7-phenyl-thieno[3,4-d]pyrimidin-4-one], the IC50 turned out to be 310 nM.

Compound `O=C([C@@H]1OCCO[C@@H]1c1ccccc1)N1CCC(O)(Cn2cnc3c(ccn3-c3ccccc3)c2=O)CC1` (single isomer, unassigned) [Example 6, 3-[[4-hydroxy-1-[cis-3-phenyl-1,4-dioxane-2-carbonyl]-4-piperidyl]methyl]-7-phenyl-pyrrolo[2,3-d]pyrimidin-4-one] returned an IC50 of 28000 nM.

For the compound `O=C([C@@H]1CCCC[C@H]1c1ccccc1)N1CCC(O)(Cn2cnc3sccc3c2=O)CC1` (relative stereo) [Example 91, 3-[[4-hydroxy-1-(trans-2-phenylcyclohexanecarbonyl)-4-piperidyl]methyl]thieno[2,3-d]pyrimidin-4-one], the midpoint of inhibition, the IC50, lay at 137 nM.

For `O=C([C@@H]1CCCC[C@H]1n1ccnc1)N1CCC(O)(Cn2cnc3c(ccn3-c3ccccc3)c2=O)CC1` (single isomer, unassigned) [Example 50, 3-[[4-hydroxy-1-[trans-2-imidazol-1-ylcyclohexanecarbonyl]-4-piperidyl]methyl]-7-phenyl-pyrrolo[2,3-d]pyrimidin-4-one], the IC50 stood at 570 nM.

On to `O=C([C@@H]1CCCC[C@H]1n1cccc1)N1CCC(O)(Cn2cnc3c(ccn3-c3ccccc3)c2=O)CC1` (single isomer, unassigned) [Example 13, 3-[[4-hydroxy-1-[trans-2-pyrrol-1-ylcyclohexanecarbonyl]-4-piperidyl]methyl]-7-phenyl-pyrrolo[2,3-d]pyrimidin-4-one], for which 11100 nM corresponded to half-maximal inhibition (IC50).

Values taken from US11332472B2, “Substituted piperidines as inhibitors of ubiquitin specific protease 7” (LES LABORATOIRES SERVIER, priority 2017, dated 2022).
